SMILES strings stand for the structures.

Here are results for 14 compounds from patent US12077483B2, “Modified amine lipids” (Intellia Therapeutics, Inc., priority 2018, dated 2024).

Series [1] can be described thus: pKa of amine lipid by TNS fluorescence. The series is classed as physicochemical. To be noted: probe TNS (6-(p-toluidino)-2-naphthalenesulfonic acid sodium salt), unformulated amine lipid in ethanol, sodium phosphate buffers -9.0. Summed up: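 Unformulated amine lipid, about 100 μM final, in 0.1 M sodium phosphate buffers spanning pH 4.5–9.0 with TNS. Fluorescence read at ex 321/em 448 nm; normalized data fitted sigmoidally to give pKa.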

The test system of the next series is mouse B2M gene. The experiment in a line: In vivo editing in mouse liver, LNP with Cas9 mRNA and sgRNA G650, NGS. To be noted: Table 3; guide G650; CD-1 female mice, 0.1 mpk i.v., liver at 6 or 7 days; Exp. 2-7. On the procedure:
LNPs were prepared using various amine lipids in a 4-component lipid system consisting of an ionizable lipid (e.g. an amine lipid), DSPC, cholesterol and PEG-2k-DMG. In assays for percent liver editing in mice, Cas9 mRNA and chemically modified sgRNA targeting a mouse sequence were formulated in LNPs, at either a 1:1 w/w ratio or a 1:2 w/w ratio.
The lipid components were dissolved in 100% ethanol with the lipid component molar ratios described below. The chemically modified sgRNA and Cas9 mRNA were combined and dissolved in 25 mM citrate, 100 mM NaCl, pH 5.0, resulting in a concentration of total RNA cargo of approximately 0.45 mg/mL. The LNPs were formulated with an N/P ratio of about 6, with the ratio of chemically modified sgRNA: Cas9 mRNA at either a 1:1 or 1:2 w/w ratio as described below.
CD-1 female mice, ranging from 6-10 weeks of age were used in each study. Animals were weighed and grouped according to body weight for preparing dosing solutions based on group average weight. LNPs were dosed via the lateral tail vein in a volume of 0.2 mL per animal (approximately 10 mL per kilogram body weight). The animals were periodically observed for adverse effects for at least 24 hours post dose.
For studies measuring in vivo editing in liver, CD-1 female mice were dosed at 0.1 mpk unless otherwise noted. Animals were euthanized at 6 or 7 days by exsanguinationvia cardiac puncture under isoflourane anesthesia. Liver tissue was collected from each animal for DNA extraction and analysis. Blood was collected into serum separator tubes or into tubes containing buffered sodium citrate for plasma as described herein. Cohorts of mice were measured for editing by Next-Generation Sequencing (NGS).
In brief, to quantitatively determine the efficiency of editing at the target location in the genome, genomic DNA was isolated and deep sequencing was utilized to identify the presence of insertions and deletions introduced by gene editing.
PCR primers were designed around the target site (e.g., B2M), and the genomic area of interest was amplified. Additional PCR was performed according to the manufacturer's protocols (Illumina) to add the necessary chemistry for sequencing. The amplicons were sequenced on an Illumina MiSeq instrument. The reads were aligned to the relevant reference genome (e.g., GRCm38) after eliminating those having low quality scores. The resulting files containing the reads were mapped to the reference genome (BAM files), where reads that overlapped the target region of interest were selected and the number of wild type reads versus the number of reads which contain an insertion, substitution, or deletion was calculated.
The editing percentage (e.g., the “editing efficiency” or “percent editing”) is defined as the total number of sequence reads with insertions or deletions over the total number of sequence reads, including wild type.
We assessed in vivo editing efficiency for materials delivered with formulations including various amine lipid compounds. Editing was measured using either G282 (SEQ ID No: 1) which targets the mouse TTR gene or G650 (SEQ ID No. 2) which targets the mouse B2M gene. Lipids described above were assessed for efficacy through in vivo editing experiments. LNPs were formulated at a 1:1 w/w ratio of sgRNA to Cas9 mRNA, and at an N/P ratio of about 6. Molar concentrations of lipids in the lipid component of the LNPs are expressed as mol % amine lipid/DSPC/cholesterol/PEG-2k-DMG, e.g. 50/10/38.5/1.5. The final LNPs were characterized to determine the encapsulation efficiency, polydispersity index, and average particle size according to the analytical methods provided above. Analysis of average particle size, polydispersity (PDI), total RNA content and encapsulation efficiency of RNA are shown in Table 2.

The next series has as its system mouse TTR. As to the kind of experiment: Serum TTR ELISA in mice after LNP delivery. It is filed as in vivo. As to conditions: mouse serum, relative to TSS control of same experiment, dose 0.1 mpk. Summed up: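 Female CD-1 mice received LNP at 0.1 mpk unless noted; serum was collected 6 or 7 days later. Total serum TTR was measured by mouse prealbumin ELISA at 10,000- and/or 2,500-fold dilution and is expressed as a percentage of vehicle control.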

Series [2] is described as follows: LNP average particle size and polydispersity by dynamic light scattering. To be noted: LNP with the compound as amine lipid; Expt. 1; composition ratio (mol %) 50/9/38/3 for Cmpnd 49, 50/10/38.5/1.5 for the others. The series is classed as physicochemical. Summed up:
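LNPs were diluted in PBS to a count rate of about 200-400 kcps and measured by DLS on a Zetasizer. Size is the intensity-weighted Z-average diameter, reported with number-average diameter, and the polydispersity index describes the spread of sizes around the mean.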

Series [3] in a line: RNA encapsulation efficiency of LNP (Ribogreen fluorescence assay). To be noted: LNP with the compound as amine lipid; Expt. 1; composition ratio (mol %) 50/9/38/3 for Cmpnd 49, 50/10/38.5/1.5 for the others. The series is classed as physicochemical. Summed up:
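LNP samples diluted in 1× TE with or without 0.2% Triton-X 100 for total or free RNA, stained ~10 min at room temperature in the dark with RiboGreen; fluorescence ex 488/em 525 nm against RNA standard curves. Encapsulation efficiency = (Total RNA−Free RNA)/Total RNA.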

Broadly, the pKa is the negative logarithm of the acid dissociation constant. Consider `CCCCC/C=C\C/C=C\CCCCCCCC(=O)OCC(COC(=O)CCCCCCC/C=C\C/C=C\CCCCC)OC(=O)CCCC(CCCCCCCCCCCC)OC(=O)OCCCN1CCCC1` (centres unmarked) [Compound 27, 2-((5-(((3-(pyrrolidin-1-yl)propoxy)carbonyl)oxy)heptadecanoyl)oxy)propane-1,3-diyl (9Z,9′Z,12Z,12′Z)-bis(octadeca-9,12-dienoate)], for which the pKa in series [1] stood at 5.97. Besides, the “Editing Mean % Indel” value with mouse B2M gene amounted to 13.0%.

As for `CCCCC/C=C\C/C=C\CCCCCCCC(=O)OCC(COC(=O)CCCCCCC/C=C\C/C=C\CCCCC)OC(=O)CCCC(CCCCCCCCCCCC)OC(=O)OCCCN(C)CC` (centres unmarked) [Compound 26, 2-((5-(((3-(ethyl(methyl)amino)propoxy)carbonyl)oxy)heptadecanoyl)oxy) propane-1,3-diyl (9Z,9′Z,12Z,12′Z)-bis(octadeca-9,12-dienoate)], in series [1], the pKa amounted to 5.82. Besides, the “Editing Mean % Indel” value with mouse B2M gene was determined as 5.2%.

With `CCCCC/C=C\C/C=C\CCCCCCCC(=O)OCC(COC(=O)CCCCCCC/C=C\C/C=C\CCCCC)OC(=O)CCC(CCCCCCCCCCCC)OC(=O)CCCN(CC)CC` (centres unmarked) [Compound 11, 2-((4-((4-(diethylamino)butanoyl)oxy)hexadecanoyl)oxy)propane-1,3-diyl (9Z,9′Z,12Z,12′Z)-bis(octadeca-9,12-dienoate)], in series [1], the pKa was found to be 5.6. Also, in the series on mouse B2M gene, the “Editing Mean % Indel” value is given as 9.2%.

With `CCCCC/C=C\C/C=C\CCCCCCCC(=O)OCC(COC(=O)CCCCCCC/C=C\C/C=C\CCCCC)OC(=O)CCCC(CCCCCCCCCCCC)OC(=O)NCC1CCCN1C` (centres unmarked) [Compound 29, 2-((5-((((1-methylpyrrolidin-2-yl)methyl)carbamoyl)oxy)heptadecanoyl)oxy) propane-1,3-diyl (9Z,9′Z,12Z,12′Z)-bis(octadeca-9,12-dienoate)], the pKa in series [1] is 6.05. Further, the “Editing Mean % Indel” value with mouse B2M gene amounted to 3.6%.

Turning to `CCCCC/C=C\C/C=C\CCCCCCCC(=O)OCC(COC(=O)CCCCCCC/C=C\C/C=C\CCCCC)OC(=O)CCCC(CCCCCCCCCCCC)OC(=O)NCCN(C)CC` (centres unmarked) [Compound 28, 2-((5-(((2-(ethyl(methyl)amino)ethyl)carbamoyl)oxy)heptadecanoyl)oxy) propane-1,3-diyl (9Z,9′Z,12Z,12′Z)-bis(octadeca-9,12-dienoate)], the pKa in series [1] was 6.06. Also, in the series on mouse B2M gene, the “Editing Mean % Indel” value was 17.8%.

In the case of `CCCCC/C=C\C/C=C\CCCCCCCC(=O)OCC(COC(=O)CCCCCCC/C=C\C/C=C\CCCCC)OC(=O)CCC(CCCCCCCC)OC(=O)OCCCN(C)CC` (centres unmarked) [Compound 33, 2-((4-(((3-(ethyl(methyl)amino)propoxy)carbonyl)oxy)dodecanoyl)oxy)propane-1,3-diyl (9Z,9′Z, 12Z, 12′Z)-bis(octadeca-9,12-dienoate)], the pKa in series [1] is 5.95. In the series with mouse B2M gene, the “Editing Mean % Indel” value turned out to be 20.0%.

Take `CCCCC/C=C\C/C=C\CCCCCCCC(=O)OCC(COC(=O)CCCCCCC/C=C\C/C=C\CCCCC)OC(=O)CCC(CCCCCCCCCCCCCCCC)OC(=O)OCCCN1CCCC1` (centres unmarked) [Compound 19, 2-((4-(((3-(pyrrolidin-1-yl)propoxy)carbonyl)oxy)icosanoyl)oxy)propane-1,3-diyl (9Z,9′Z,12Z,12′Z)-bis(octadeca-9,12-dienoate)]: the pKa in series [1] amounted to 5.99. Also, the “Editing Mean % Indel” value with mouse B2M gene came to 13.0%.

For `CCCCC/C=C\C/C=C\CCCCCCCC(=O)OCC(COC(=O)CCCCCCC/C=C\C/C=C\CCCCC)OC(=O)CCC(CCCCCCCCCCCCCCCC)OC(=O)OCCCN(C)C` (centres unmarked) [Compound 17, 2-((4-(((3-(dimethylamino)propoxy)carbonyl)oxy)icosanoyl)oxy)propane-1,3-diyl (9Z,9′Z,12Z,12′Z)-bis(octadeca-9,12-dienoate)], in series [1], the pKa is 6.18. Besides, in the series on mouse B2M gene, the “Editing Mean % Indel” value was determined as 12.3%.

On to `CCCCC/C=C\C/C=C\CCCCCCCC(=O)OCC(COC(=O)CCCCCCC/C=C\C/C=C\CCCCC)OC(=O)CCCC(CCCCCCCCCCCC)OC(=O)OCCCN(C)C` (centres unmarked) [Compound 25, 2-((5-(((3-(dimethylamino)propoxy)carbonyl)oxy)heptadecanoyl)oxy)propane-1,3-diyl (9Z,9′Z,12Z,12′Z)-bis(octadeca-9,12-dienoate)], for which, in series [1], the pKa came to 6.12. Further, in the series on mouse B2M gene, the “Editing Mean % Indel” value came to 10.2%.

In the case of `CCCCC/C=C\C/C=C\CCCCCCCC(=O)OCC(COC(=O)CCCCCCC/C=C\C/C=C\CCCCC)OC(=O)CCC(CCCCCCCCCCCC)OC(=O)NCCN(CC)CC` (centres unmarked) [Compound 15, 2-((4-(((2-(diethylamino)ethyl)carbamoyl)oxy)hexadecanoyl)oxy)propane-1,3-diyl (9Z,9′Z,12Z,12′Z)-bis(octadeca-9,12-dienoate)], the pKa in series [1] turned out to be 5.9. Besides, in the series on mouse B2M gene, the “Editing Mean % Indel” value is on record as 18.0%.

Regarding `CCCCC/C=C\C/C=C\CCCCCCCC(=O)OCC(COC(=O)CCCCCCC/C=C\C/C=C\CCCCC)OC(=O)CCC(CCCCCCCCCCCC)OC(=O)C1(C)CCN(C)CC1` (centres unmarked) [Compound 10, 2-((4-((1,4-dimethylpiperidine-4-carbonyl)oxy)hexadecanoyl)oxy)propane-1,3-diyl (9Z,9′Z,12Z,12′Z)-bis(octadeca-9,12-dienoate)], in series [1], the pKa was determined as 6.05. Moreover, in the series with mouse B2M gene, the “Editing Mean % Indel” value was determined as 5.3%.

As for `CCCCC/C=C\C/C=C\CCCCCCCC(=O)OCC(COC(=O)CCCCCCC/C=C\C/C=C\CCCCC)OC(=O)CCC(CCCCCCCCCCCCCCCC)OC(=O)NCC1CCCN1C` (centres unmarked) [Compound 21, 2-((4-((((1-methylpyrrolidin-2-yl)methyl)carbamoyl)oxy)icosanoyl)oxy)propane-1,3-diyl (9Z,9′Z,12Z,12′Z)-bis(octadeca-9,12-dienoate)], in series [1], the pKa came out at 6.12. Besides, in the series with mouse B2M gene, the “Editing Mean % Indel” value is reported as 12.1%.

As to `CCCCC/C=C\C/C=C\CCCCCCCC(=O)OCC(COC(=O)CCCCCCC/C=C\C/C=C\CCCCC)OC(=O)CCC(CCCCCCCCCCCCCCCC)OC(=O)NCCN(C)CC` (centres unmarked) [Compound 20, 2-((4-(((2-(ethyl(methyl)amino)ethyl)carbamoyl)oxy)icosanoyl)oxy)propane-1,3-diyl (9Z,9′Z,12Z,12′Z)-bis(octadeca-9,12-dienoate)], the pKa in series [1] was determined as 6.17. In the series with mouse B2M gene, the “Editing Mean % Indel” value is reported as 15.4%.

With `CCCCCCCCCCCOC(=O)CCCCCCCC(=O)OCC(COC(=O)CCCCCCCC(=O)OCCCCCCCCCCC)OC(=O)CC(CCCCCCCC)OC(=O)NCCN(C)CC` (centres unmarked) [Compound 59, O′1,O1-(2-((3-(((2-(ethyl(methyl)amino)ethyl)carbamoyl)oxy)undecanoyl)oxy)propane-1,3-diyl) 9,9′-diundecyl di(nonanedioate)], in the series on mouse TTR, the “Serum TTR % TSS” value was found to be 80.70 % TSS. For the same compound, in series [2], the “Num Ave Size (nm)” value turned out to be 88.36 nm, the PDI is 0.03 and the “Z-Ave Size (nm)” value is given as 109.90 nm. Moreover, the pKa in series [1] came out at 6.34. The “Encapsulation (%)” value in series [3] is 97%.
